Assay: xn = mol fraction of the nth substance listed
Settings: 100 kPa, Liquid; for viscosity: Concentric cylinders viscometry; for mass density: Vibrating tube method

CCCCCCCO [heptan-1-ol] + CCCCOC(C)=O
Settings | mass density [kg/m3] | viscosity [mPa·s]
293.15 K, x2 = 0 | 822.2 | 7.03
293.15 K, x2 = 0.0819 | 826.3 | 6.17
293.15 K, x2 = 0.1604 | 830.3 | 5.46
293.15 K, x2 = 0.2399 | 834.5 | 4.81
293.15 K, x2 = 0.3497 | 840.6 | 4.03
293.15 K, x2 = 0.4399 | 845.7 | 3.47
293.15 K, x2 = 0.5743 | 853.6 | 2.72
293.15 K, x2 = 0.6496 | 858.2 | 2.34
293.15 K, x2 = 0.7391 | 863.8 | 1.92
293.15 K, x2 = 0.8491 | 870.9 | 1.41
293.15 K, x2 = 0.9385 | 876.8 | 1.01
298.15 K, x2 = 0 | 818.7 | 5.92
298.15 K, x2 = 0.0819 | 822.6 | 5.17
298.15 K, x2 = 0.1604 | 826.4 | 4.56
298.15 K, x2 = 0.2399 | 830.5 | 3.99
298.15 K, x2 = 0.3497 | 836.3 | 3.33
298.15 K, x2 = 0.4399 | 841.3 | 2.86
298.15 K, x2 = 0.5743 | 849 | 2.25
298.15 K, x2 = 0.6496 | 853.5 | 1.95
298.15 K, x2 = 0.7391 | 859 | 1.61
298.15 K, x2 = 0.8491 | 865.9 | 1.22
298.15 K, x2 = 0.9385 | 871.8 | 0.9
303.15 K, x2 = 0 | 815.2 | 5.03
303.15 K, x2 = 0.0819 | 818.8 | 4.37
303.15 K, x2 = 0.1604 | 822.5 | 3.84
303.15 K, x2 = 0.2399 | 826.3 | 3.35
303.15 K, x2 = 0.3497 | 831.9 | 2.78
303.15 K, x2 = 0.4399 | 836.7 | 2.4
303.15 K, x2 = 0.5743 | 844.2 | 1.89
303.15 K, x2 = 0.6496 | 848.6 | 1.65
303.15 K, x2 = 0.7391 | 853.9 | 1.38
303.15 K, x2 = 0.8491 | 860.8 | 1.06
303.15 K, x2 = 0.9385 | 866.6 | 0.81
308.15 K, x2 = 0 | 811.6 | 4.3
308.15 K, x2 = 0.0819 | 815 | 3.73
308.15 K, x2 = 0.1604 | 818.4 | 3.26
308.15 K, x2 = 0.2399 | 822.1 | 2.84
308.15 K, x2 = 0.3497 | 827.4 | 2.36
308.15 K, x2 = 0.4399 | 832.1 | 2.03
308.15 K, x2 = 0.5743 | 839.3 | 1.61
308.15 K, x2 = 0.6496 | 843.6 | 1.41
308.15 K, x2 = 0.7391 | 848.9 | 1.19
308.15 K, x2 = 0.8491 | 855.7 | 0.94
308.15 K, x2 = 0.9385 | 861.4 | 0.73
313.15 K, x2 = 0 | 808 | 3.71
313.15 K, x2 = 0.0819 | 811 | 3.19
313.15 K, x2 = 0.1604 | 814.2 | 2.78
313.15 K, x2 = 0.2399 | 817.6 | 2.42
313.15 K, x2 = 0.3497 | 822.7 | 2.01
313.15 K, x2 = 0.4399 | 827.1 | 1.74
313.15 K, x2 = 0.5743 | 834.1 | 1.4
313.15 K, x2 = 0.6496 | 838.3 | 1.23
313.15 K, x2 = 0.7391 | 843.5 | 1.06
313.15 K, x2 = 0.8491 | 850.3 | 0.85
313.15 K, x2 = 0.9385 | 856 | 0.67
318.15 K, x2 = 0 | 804.4 | 3.21
318.15 K, x2 = 0.0819 | 807.2 | 2.75
318.15 K, x2 = 0.1604 | 810.1 | 2.4
318.15 K, x2 = 0.2399 | 813.3 | 2.08
318.15 K, x2 = 0.3497 | 818.1 | 1.73
318.15 K, x2 = 0.4399 | 822.3 | 1.49
318.15 K, x2 = 0.5743 | 829.2 | 1.22
318.15 K, x2 = 0.6496 | 833.3 | 1.09
318.15 K, x2 = 0.7391 | 838.4 | 0.94
318.15 K, x2 = 0.8491 | 845.1 | 0.77
318.15 K, x2 = 0.9385 | 850.9 | 0.62
323.15 K, x2 = 0 | 800.7 | 2.79
323.15 K, x2 = 0.0819 | 803.2 | 2.4
323.15 K, x2 = 0.1604 | 806 | 2.09
323.15 K, x2 = 0.2399 | 808.9 | 1.81
323.15 K, x2 = 0.3497 | 813.5 | 1.5
323.15 K, x2 = 0.4399 | 817.6 | 1.3
323.15 K, x2 = 0.5743 | 824.2 | 1.06
323.15 K, x2 = 0.6496 | 828.2 | 0.95
323.15 K, x2 = 0.7391 | 833.2 | 0.83
323.15 K, x2 = 0.8491 | 839.9 | 0.7
323.15 K, x2 = 0.9385 | 845.7 | 0.58

CCCCOC(C)=O [butyl ethanoate] + CCCCCCCCO
Settings | mass density [kg/m3] | viscosity [mPa·s]
293.15 K, x1 = 0.0809 | 828.3 | 8.07
293.15 K, x1 = 0.1595 | 831.8 | 7.17
293.15 K, x1 = 0.2399 | 835.5 | 6.32
293.15 K, x1 = 0.3499 | 840.9 | 5.29
293.15 K, x1 = 0.4399 | 845.6 | 4.54
293.15 K, x1 = 0.5626 | 852.5 | 3.59
293.15 K, x1 = 0.6499 | 857.6 | 2.97
293.15 K, x1 = 0.7401 | 863.2 | 2.37
293.15 K, x1 = 0.8499 | 870.4 | 1.69
293.15 K, x1 = 0.9395 | 876.6 | 1.12
293.15 K, x1 = 1 | 881.1 | 0.732
298.15 K, x1 = 0.0809 | 824.6 | 6.69
298.15 K, x1 = 0.1595 | 827.9 | 5.9
298.15 K, x1 = 0.2399 | 831.5 | 5.19
298.15 K, x1 = 0.3499 | 836.7 | 4.32
298.15 K, x1 = 0.4399 | 841.3 | 3.7
298.15 K, x1 = 0.5626 | 847.9 | 2.93
298.15 K, x1 = 0.6499 | 853 | 2.43
298.15 K, x1 = 0.7401 | 858.4 | 1.96
298.15 K, x1 = 0.8499 | 865.5 | 1.43
298.15 K, x1 = 0.9395 | 871.6 | 0.99
298.15 K, x1 = 1 | 876 | 0.677
303.15 K, x1 = 0.0809 | 820.8 | 5.59
303.15 K, x1 = 0.1595 | 823.9 | 4.92
303.15 K, x1 = 0.2399 | 827.4 | 4.3
303.15 K, x1 = 0.3499 | 832.4 | 3.57
303.15 K, x1 = 0.4399 | 836.8 | 3.06
303.15 K, x1 = 0.5626 | 843.2 | 2.42
303.15 K, x1 = 0.6499 | 848.1 | 2.01
303.15 K, x1 = 0.7401 | 853.4 | 1.63
303.15 K, x1 = 0.8499 | 860.3 | 1.22
303.15 K, x1 = 0.9395 | 866.4 | 0.88
303.15 K, x1 = 1 | 870.9 | 0.628
308.15 K, x1 = 0.0809 | 817.1 | 4.72
308.15 K, x1 = 0.1595 | 820.1 | 4.15
308.15 K, x1 = 0.2399 | 823.4 | 3.61
308.15 K, x1 = 0.3499 | 828.1 | 2.99
308.15 K, x1 = 0.4399 | 832.3 | 2.56
308.15 K, x1 = 0.5626 | 838.5 | 2.05
308.15 K, x1 = 0.6499 | 843.2 | 1.73
308.15 K, x1 = 0.7401 | 848.4 | 1.42
308.15 K, x1 = 0.8499 | 855.3 | 1.08
308.15 K, x1 = 0.9395 | 861.2 | 0.79
308.15 K, x1 = 1 | 865.7 | 0.585
313.15 K, x1 = 0.0809 | 813.3 | 4.01
313.15 K, x1 = 0.1595 | 815.9 | 3.52
313.15 K, x1 = 0.2399 | 818.9 | 3.06
313.15 K, x1 = 0.3499 | 823.3 | 2.53
313.15 K, x1 = 0.4399 | 827.3 | 2.17
313.15 K, x1 = 0.5626 | 833.3 | 1.75
313.15 K, x1 = 0.6499 | 838 | 1.48
313.15 K, x1 = 0.7401 | 843.1 | 1.24
313.15 K, x1 = 0.8499 | 849.9 | 0.95
313.15 K, x1 = 0.9395 | 855.8 | 0.71
313.15 K, x1 = 1 | 860.5 | 0.546
318.15 K, x1 = 0.0809 | 809.4 | 3.44
318.15 K, x1 = 0.1595 | 811.9 | 3.01
318.15 K, x1 = 0.2399 | 814.6 | 2.62
318.15 K, x1 = 0.3499 | 818.8 | 2.17
318.15 K, x1 = 0.4399 | 822.6 | 1.87
318.15 K, x1 = 0.5626 | 828.4 | 1.51
318.15 K, x1 = 0.6499 | 832.9 | 1.3
318.15 K, x1 = 0.7401 | 838 | 1.08
318.15 K, x1 = 0.8499 | 844.7 | 0.84
318.15 K, x1 = 0.9395 | 850.7 | 0.65
318.15 K, x1 = 1 | 855.3 | 0.512
323.15 K, x1 = 0.0809 | 805.6 | 2.97
323.15 K, x1 = 0.1595 | 807.8 | 2.6
323.15 K, x1 = 0.2399 | 810.4 | 2.26
323.15 K, x1 = 0.3499 | 814.3 | 1.86
323.15 K, x1 = 0.4399 | 817.9 | 1.6
323.15 K, x1 = 0.5626 | 823.5 | 1.3
323.15 K, x1 = 0.6499 | 828 | 1.12
323.15 K, x1 = 0.7401 | 832.9 | 0.96
323.15 K, x1 = 0.8499 | 839.5 | 0.76
323.15 K, x1 = 0.9395 | 845.5 | 0.6
323.15 K, x1 = 1 | 850.1 | 0.485

From the NIST ThermoML archive (doi:10.1021/acs.jced.8b00524)
